Measured values taken from US8076487B2, “Pyridone derivative and herbicide” (Kumiai Chemical Industry Co., Ltd., priority 2006, dated 2011).

Key:
Format in all cases: in vivo
[1] = test system: early watergrass (Echinochloa oryzicola Vasing); assay: Test Example 1: herbicidal effect by soil application to paddy field; details: for herbicidal effect, Echinochloa oryzicola Vasing: paddy field soil application, active ingredient 1,000 g per 1 hectare, wettable powder added dropwise to water surface the day after sowing, examined on the 21st day after application
Outline: (§1)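 Under greenhouse conditions, seeds sown on puddled paddy soil in 100 cm2 pots under 3 cm of standing water received the test compound; injury was assessed with a standard scoring scheme three weeks (day 21) after treatment.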

[2] = test system: Japanese bulrush (Scirpus juncoides Roxb.); assay: as above; details: for herbicidal effect, Scirpus juncoides Roxb.: paddy field soil application, active ingredient 1,000 g per 1 hectare, wettable powder added dropwise to water surface the day after sowing, examined on the 21st day after application
Outline: as §1

[3] = test system: heartshape false pickerelweed (Monochoria vaginalis (Burm.f.) C.Presl); assay: as above; details: for herbicidal effect, Monochoria vaginalis (Burm. f.) C. Presl: paddy field soil application, active ingredient 1,000 g per 1 hectare, wettable powder added dropwise to water surface the day after sowing, examined on the 21st day after application
Outline: as §1

[4] = test system: slender amaranth (Amaranthus viridis L.); assay: Test Example 3: herbicidal effect by application to upland field (foliage treatment); details: foliage treatment, 1,000 g active ingredient per 1 hectare, 14th day after application, greenhouse
Outline: (§2)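 Foliage treatment, greenhouse: 2-week-old plants in field soil; wettable powder in water sprayed over the top at 1,000 g a.i./ha (1,000 L/ha); rating on day 14 post-application.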

[5] = test system: green foxtail (Setaria viridis (L.) P. Beauv.); assay: as above; details: foliage treatment, 1,000 g active ingredient per 1 hectare, 14th day after application, greenhouse
Outline: as §2

[6] = test system: barnyardgrass (Echinochloa crus-galli (L.) P. Beauv. var. crus-galli); assay: as above; details: foliage treatment, 1,000 g active ingredient per 1 hectare, 14th day after application, greenhouse
Outline: as §2

[7] = test system: velvetleaf (Abutilon theophrasti medicus); assay: as above; details: foliage treatment, 1,000 g active ingredient per 1 hectare, 14th day after application, greenhouse
Outline: as §2

[8] = test system: slender amaranth (Amaranthus viridis L.); assay: Test Example 2: herbicidal effect by soil application to upland field; details: soil surface spray, upland field soil, 1,000 g active ingredient per hectare, 21st day after application
Outline: (§3)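 Seeds were sown in field soil, covered, and the soil surface sprayed with a water-diluted wettable powder at 1,000 g active ingredient per hectare in 1,000 L/ha. Plants grew in a greenhouse, and herbicidal effect was rated against a standard scale 21 days after application.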

[9] = test system: green foxtail (Setaria viridis (L.) P. Beauv.); assay: as above; details: soil surface spray, upland field soil, 1,000 g active ingredient per hectare, 21st day after application
Outline: as §3

[10] = test system: barnyardgrass (Echinochloa crus-galli (L.) P. Beauv. var. crus-galli); assay: as above; details: soil surface spray, upland field soil, 1,000 g active ingredient per hectare, 21st day after application
Outline: as §3

[11] = test system: velvetleaf (Abutilon theophrasti medicus); assay: as above; details: soil surface spray, upland field soil, 1,000 g active ingredient per hectare, 21st day after application
Outline: as §3

[12] = soil application to paddy field, rated by standard of Table 34

Structure (SMILES) | herbicidal effect, Echinochloa oryzicola Vasing [1] | herbicidal effect, Scirpus juncoides Roxb. [2] | herbicidal effect, Monochoria vaginalis (Burm. f.) C. Presl [3] | herbicidal effect, Slender Amaranth [4] | herbicidal effect, Green Foxtail [5] | herbicidal effect, Barnyardgrass [6] | herbicidal effect, Velvetleaf [7] | herbicidal effect (index), Slender Amaranth [8] | herbicidal effect (index), Green Foxtail [9] | herbicidal effect (index), Barnyardgrass [10] | herbicidal effect (index), Velvetleaf [11] | herbicidal effect (index), Echinochloa oryzicola Vasing [1, 12] | herbicidal effect (index), Scirpus juncoides Roxb. [2, 12] | herbicidal effect (index), Monochoria vaginalis (Burm.f.) C.Presl [3, 12]
C=CCn1c(C(F)(F)F)ccc(C(=O)c2cnn(C)c2O)c1=O [IV-11] | 5 (90% or more of herbicidal effect and crop phytotoxicity) | 5 (90% or more of herbicidal effect and crop phytotoxicity) | 5 (90% or more of herbicidal effect and crop phytotoxicity) | 5 (90% or more of herbicidal effect and crop phytotoxicity) | 5 (90% or more of herbicidal effect and crop phytotoxicity) | 5 (90% or more of herbicidal effect and crop phytotoxicity) | 5 (90% or more of herbicidal effect and crop phytotoxicity) | 5 (90% or more of herbicidal effect and crop phytotoxicity) | 4 (70 to less than 90% of herbicidal effect and crop phytotoxicity) | 5 (90% or more of herbicidal effect and crop phytotoxicity) | 5 (90% or more of herbicidal effect and crop phytotoxicity) | – | – | –
COCCNn1c(C(F)(F)F)ccc(C(=O)C2=C(O)CCCC2=O)c1=O [I-169] | 5 (90% or more of herbicidal effect and crop phytotoxicity) | 5 (90% or more of herbicidal effect and crop phytotoxicity) | 5 (90% or more of herbicidal effect and crop phytotoxicity) | 5 (90% or more of herbicidal effect and crop phytotoxicity) | 5 (90% or more of herbicidal effect and crop phytotoxicity) | 5 (90% or more of herbicidal effect and crop phytotoxicity) | 5 (90% or more of herbicidal effect and crop phytotoxicity) | 5 (90% or more of herbicidal effect and crop phytotoxicity) | 5 (90% or more of herbicidal effect and crop phytotoxicity) | 5 (90% or more of herbicidal effect and crop phytotoxicity) | 5 (90% or more of herbicidal effect and crop phytotoxicity) | – | – | –
COCc1cc(-n2c(C(F)(F)F)ccc(C(=O)C3=C(O)CCCC3=O)c2=O)ccc1F [I-111] | 5 (90% or more of herbicidal effect and crop phytotoxicity) | 5 (90% or more of herbicidal effect and crop phytotoxicity) | 5 (90% or more of herbicidal effect and crop phytotoxicity) | 5 (90% or more of herbicidal effect and crop phytotoxicity) | 5 (90% or more of herbicidal effect and crop phytotoxicity) | 5 (90% or more of herbicidal effect and crop phytotoxicity) | 5 (90% or more of herbicidal effect and crop phytotoxicity) | 5 (90% or more of herbicidal effect and crop phytotoxicity) | 5 (90% or more of herbicidal effect and crop phytotoxicity) | 5 (90% or more of herbicidal effect and crop phytotoxicity) | 5 (90% or more of herbicidal effect and crop phytotoxicity) | – | – | –
COCCCn1c(C(F)(F)F)ccc(C(=O)c2cnn(C)c2OC(C)=O)c1=O [IV-48] | 5 (90% or more of herbicidal effect and crop phytotoxicity) | 5 (90% or more of herbicidal effect and crop phytotoxicity) | 5 (90% or more of herbicidal effect and crop phytotoxicity) | 5 (90% or more of herbicidal effect and crop phytotoxicity) | 4 (70 to less than 90% of herbicidal effect and crop phytotoxicity) | 5 (90% or more of herbicidal effect and crop phytotoxicity) | 5 (90% or more of herbicidal effect and crop phytotoxicity) | 5 (90% or more of herbicidal effect and crop phytotoxicity) | 5 (90% or more of herbicidal effect and crop phytotoxicity) | 4 (70 to less than 90% of herbicidal effect and crop phytotoxicity) | 5 (90% or more of herbicidal effect and crop phytotoxicity) | – | – | –
O=C1CCCC(O)=C1C(=O)c1ccc2ccccc2n1 [Comparative Compound 2, reference compound] | – | – | – | 1 (10 to less than 30% of herbicidal effect and crop phytotoxicity) | 0 (0 to less than 10% of herbicidal effect and crop phytotoxicity) | 0 (0 to less than 10% of herbicidal effect and crop phytotoxicity) | 5 (90% or more of herbicidal effect and crop phytotoxicity) | 2 (30 to less than 50% of herbicidal effect and crop phytotoxicity) | 0 (0 to less than 10% of herbicidal effect and crop phytotoxicity) | 3 (50 to less than 70% of herbicidal effect and crop phytotoxicity) | 2 (30 to less than 50% of herbicidal effect and crop phytotoxicity) | 0 (0 to less than 10% of herbicidal effect and crop phytotoxicity) | 0 (0 to less than 10% of herbicidal effect and crop phytotoxicity) | 0 (0 to less than 10% of herbicidal effect and crop phytotoxicity)
COCCOCCn1c(C(F)(F)F)ccc(C(=O)C2=C(O)C(C)(C)CCC2=O)c1=O [II-31] | 5 (90% or more of herbicidal effect and crop phytotoxicity) | 5 (90% or more of herbicidal effect and crop phytotoxicity) | 5 (90% or more of herbicidal effect and crop phytotoxicity) | 5 (90% or more of herbicidal effect and crop phytotoxicity) | 5 (90% or more of herbicidal effect and crop phytotoxicity) | 5 (90% or more of herbicidal effect and crop phytotoxicity) | 5 (90% or more of herbicidal effect and crop phytotoxicity) | 5 (90% or more of herbicidal effect and crop phytotoxicity) | 5 (90% or more of herbicidal effect and crop phytotoxicity) | 5 (90% or more of herbicidal effect and crop phytotoxicity) | 5 (90% or more of herbicidal effect and crop phytotoxicity) | – | – | –
